Key:
[1] = molecular target: T1, hDAT (Homo sapiens, UniProt Q01959); test: Transporter binding, [3H]WIN 35,428 binding at hDAT (HEK293 membranes)
T1 construct: expressed in transfected cells; host or cells: HEK293
Protocol: For membrane preparation, cells were harvested from 80 to 90% confluent dishes. HEK293 cells were washed with ice-cold phosphate-buffered saline (PBS), mechanically detached from the dish using a plastic scraper, and pelleted by centrifugation (400g for 10 min at 4 °C). The pellet was resuspended in HME buffer (20 mM HEPES NaOH, 1 mM EDTA, 2 mM MgCl2; pH 7.4), subjected to two freeze–thaw cycles in liquid nitrogen and homogenized through sonication at 4 °C. Membranes were then collected by centrifugation (40,000g for 30 min at 4 °C) and resuspended in an appropriate volume of HME buffer. The different membrane preparations aliquots were kept at −80 °C. Protein concentration was determined using the Bio-Rad Protein Reagent (Bio-Rad Laboratories, Hercules, CA).
Binding assays were performed as described.[6] […] This nonspecific binding also allows subtracting from the total binding values of the binding to other components such as membrane lipids or microfiber filters. Incubation was performed for 1 h at 22 °C. Binding reactions are stopped by rapid filtration of the membranes through GF/C glass microfiber filters presoaked with 0.5% polyethyleneimine and rapid washing with ice-cold wash buffer (120 mM NaCl, 2 mM MgCl2, 10 mM Tris, and 100 μM ZnCl2 for hDAT, and […], 2 mM MgCl2, and 10 mM Tris, for hSERT). Thereafter, the filters are placed into vials, a scintillation cocktail is added and trapped radioactivity is quantified by liquid scintillation counting. Specific binding of each drug to the transporter was defined as the difference between total binding (binding buffer in absence of the drug) and nonspecific binding. For each cathinone, four independent experiments carried out on duplicates were performed.
For in vitro assays, data were normalized with 100% defined as the mean of the technical replicates in the control group and expressed as mean ± SEM. Nonlinear regression was used to fit the different competition curves. Data were plotted and best fitted to a sigmoidal dose–response curve from which an IC50 or LC50 value was obtained. Transporter ratios were calculated as (1/DAT IC50: 1/SERT IC50). […] The Cheng–Prusoff equation was used to calculate Ki (affinity): Ki = EC50/(1 + [radioligand concentration/Kd]).[65] The sample size for behavioral experiments was determined using GPower software. One-way or two-way ANOVA, and subsequent Tukey’s posthoc test, conducted only if F was significant, was used to determine the effects of cathinones on cytotoxicity, HLA, OF, and CPP experiments. The α error probability was set at 0.05 (p < 0.05). The exact size group for the behavioral experiments is shown in the corresponding figure legends. All statistic calculations were carried out using GraphPad Prism (GraphPad software, San Diego, CA, USA).

[2] = Cytotoxicity in NGF-differentiated PC12 cells, WST-8 cell viability assay; assay type: cell-based; details: rat, WST-8, 24 h exposure, mean ± SEM of 3–4 experiments, read-out: LC50 (approximated), cell viability
Protocol: Pheochromocytoma cells (PC12) cells were cultured in collagen-coated dishes in DMEM supplemented with heat-inactivated 5% FBS, 10% horse serum, 10 mM HEPES, 2 mM glutamine, 25 UI/mL penicillin, and 25 μg/mL streptomycin (maintenance medium) and grown at 37 °C in a humidified 5% CO2 atmosphere. Cell differentiation was performed as described[54] with minor modifications. In brief, cells were seeded (250.000 cells/well) onto 96-well plates in the maintenance medium, and after 24 h, the medium was changed to a differentiation medium containing 50 ng/mL NGF. After 24 h, neurite outgrowth was already apparent.
Treatments with different concentrations of the drug in DMEM were performed 48 h after cell differentiation. 10 μL of the tested drug was added per well, in triplicate, and cells were incubated for 24 h at 37 °C in a humidified 5% CO2 atmosphere. Thereafter, the medium was removed and immediately replaced with a maintenance medium. 10 μL of the CCK-8 Cell Counting Kit, based on 2-(2-methoxy-4-nitrophenyl)-3-(4-nitrophenyl)-5-(2,4-disulfophenyl)-2H-tetrazolium, monosodium salt (WST-8), was added per well and was incubated for 2 h at 37 °C in a humidified 5% CO2 atmosphere. This method has been defined as a good alternative to the 3-(4,5-dimethylthiazol-2-yl)-2,5-diphenyltetrazoliumbromide (MTT) assay.[63] Optical density was measured at 450 nm, using a microplate reader.
For in vitro assays, data were normalized with 100% defined as the mean of the technical replicates in the control group and expressed as mean ± SEM. Nonlinear regression was used to fit the different competition curves. Data were plotted and best fitted to a sigmoidal dose–response curve from which an IC50 or LC50 value was obtained. Transporter ratios were calculated as (1/DAT IC50: 1/SERT IC50). Although IC50 values at inhibiting 5-HT uptake for some compounds tested are expressed as >100 μM for clarity purposes, DAT/SERT ratios were calculated with the original raw data. The Cheng–Prusoff equation was used to calculate Ki (affinity): Ki = EC50/(1 + [radioligand concentration/Kd]).[65] The sample size for behavioral experiments was determined using GPower software. One-way or two-way ANOVA, and subsequent Tukey’s posthoc test, conducted only if F was significant, was used to determine the effects of cathinones on cytotoxicity, HLA, OF, and CPP experiments. The α error probability was set at 0.05 (p < 0.05). The exact size group for the behavioral experiments is shown in the corresponding figure legends. All statistic calculations were carried out using GraphPad Prism (GraphPad software, San Diego, CA, USA).

[3] = tested on: Swiss CD-1 mice; test: Conditioned place preference (CPP); assay type: in vivo; details: for CPP preference score vs saline: 3 mg/kg i.p.
Protocol: Male Swiss CD-1 mice (Janvier, Le Genest, France) weighing 30–35 g (6–8 weeks old), housed in temperature-controlled conditions (22 ± 1 °C) under a 12 h light/dark cycle and with free access to food and drinking water (standard laboratory diet, Panlab SL, Barcelona, Spain), were randomly assigned to an experimental group. Efforts were made to minimize animal use and suffering.
The potential of the studied compounds to induce reward was determined using a place conditioning paradigm, as described.[6] For this experiment, an apparatus with two distinct compartments, with differences in tactile and visual cues, communicated by a central corridor, has been used. In brief, CPP was performed in three phases: preconditioning test, conditioning, and postconditioning test. During the preconditioning phase (day 0), mice were placed in the middle of the corridor and had free access to both compartments for 15 min. The time spent in each compartment was recorded and monitored using a specific tracking software (Smart 3.0 Panlab, Barcelona, Spain). […] In the alternative session, mice received a saline i.p. injection and were placed for 20 min in the other compartment. Mice in the control group received a saline injection in every session. The compartment and session in which mice received the drug were randomized. On the test day (postconditioning phase), the same conditions as in the preconditioning phase were applied. A preference score was calculated as the difference between the time spent in the drug-paired compartment in the postconditioning test minus the time spent in the preconditioning phase.

[4] = tested on: Swiss CD-1 mice; parameters: method as in PMID 33155384; details: 10 and 25 mg/kg injections; cited from earlier work

T1 sequence (Q01959 whole entry): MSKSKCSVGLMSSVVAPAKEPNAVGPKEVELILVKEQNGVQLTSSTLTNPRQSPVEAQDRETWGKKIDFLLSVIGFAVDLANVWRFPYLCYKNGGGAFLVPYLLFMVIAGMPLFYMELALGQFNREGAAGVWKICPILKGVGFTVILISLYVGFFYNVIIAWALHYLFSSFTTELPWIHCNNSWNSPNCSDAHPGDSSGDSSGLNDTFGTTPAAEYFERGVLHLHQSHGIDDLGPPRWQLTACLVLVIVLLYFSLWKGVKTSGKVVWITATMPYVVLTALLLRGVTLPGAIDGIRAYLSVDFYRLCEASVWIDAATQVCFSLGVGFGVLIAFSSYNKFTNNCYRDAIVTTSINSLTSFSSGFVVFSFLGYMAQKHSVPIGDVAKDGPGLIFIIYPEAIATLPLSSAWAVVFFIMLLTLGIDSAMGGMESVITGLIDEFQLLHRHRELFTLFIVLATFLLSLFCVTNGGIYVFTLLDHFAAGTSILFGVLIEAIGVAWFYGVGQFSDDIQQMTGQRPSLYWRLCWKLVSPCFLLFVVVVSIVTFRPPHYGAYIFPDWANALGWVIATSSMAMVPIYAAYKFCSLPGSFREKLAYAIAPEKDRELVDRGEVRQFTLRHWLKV

Structure (SMILES) | Ki [1] [µM] | CC50 at 24 h [2] [µM] | CPP preference score vs saline [3] | CPP rewarding effect vs saline ([3]; 10 mg/kg i.p.) | locomotor activity [4] | CPP rewarding effect vs saline ([3]; any dose tested (3, 10, 30 mg/kg i.p.))
CCNC(CC)C(=O)c1ccccc1 (stereo not shown) [NEB, N-ethyl-buphedrone] | 0.198 | 6240 | significant preference score | produce rewarding effects | – | –
CCNC(C)C(=O)c1ccccc1 (stereo not shown) [NEC, N-ethyl-cathinone] | 2.33 | 3970 | significant preference score | produce rewarding effects | – | –
CCCCC(NCC)C(=O)c1ccccc1 (stereo not shown) [NEH, N-ethyl-hexedrone] | 0.121 | 3280 | – | produce rewarding effects | increase in locomotor activity | –
CCCCCC(NCC)C(=O)c1ccccc1 (stereo not shown) [NEHP, N-ethyl-heptedrone] | 0.107 | 1260 | – | – | – | did not induce a significant rewarding effect
CCCC(NCC)C(=O)c1ccccc1 (stereo not shown) [NEPD, N-ethyl-pentedrone] | 0.042 | 3820 | significant preference score | produce rewarding effects | – | –
